In ChEMBL document CHEMBL1149726, “New Pentacyclic Compounds from the Okinawan Marine Sponge Xestospongia sapra” (J Nat Prod, 1992):
≈ marks a conversion by molar mass, not a printed value.

Columns and labels:
[1] = system: KB; assay: Cytotoxicity against human KB cells; type: functional, cell-based
[2] = system: L1210; assay: Cytotoxicity against mouse L1210 cells; type: functional, cell-based
[3] = target: T1, DNA topoisomerase 1 (Homo sapiens) (UniProt P11387); assay: Inhibition of DNA topoisomerase 1
T1 sequence (whole entry): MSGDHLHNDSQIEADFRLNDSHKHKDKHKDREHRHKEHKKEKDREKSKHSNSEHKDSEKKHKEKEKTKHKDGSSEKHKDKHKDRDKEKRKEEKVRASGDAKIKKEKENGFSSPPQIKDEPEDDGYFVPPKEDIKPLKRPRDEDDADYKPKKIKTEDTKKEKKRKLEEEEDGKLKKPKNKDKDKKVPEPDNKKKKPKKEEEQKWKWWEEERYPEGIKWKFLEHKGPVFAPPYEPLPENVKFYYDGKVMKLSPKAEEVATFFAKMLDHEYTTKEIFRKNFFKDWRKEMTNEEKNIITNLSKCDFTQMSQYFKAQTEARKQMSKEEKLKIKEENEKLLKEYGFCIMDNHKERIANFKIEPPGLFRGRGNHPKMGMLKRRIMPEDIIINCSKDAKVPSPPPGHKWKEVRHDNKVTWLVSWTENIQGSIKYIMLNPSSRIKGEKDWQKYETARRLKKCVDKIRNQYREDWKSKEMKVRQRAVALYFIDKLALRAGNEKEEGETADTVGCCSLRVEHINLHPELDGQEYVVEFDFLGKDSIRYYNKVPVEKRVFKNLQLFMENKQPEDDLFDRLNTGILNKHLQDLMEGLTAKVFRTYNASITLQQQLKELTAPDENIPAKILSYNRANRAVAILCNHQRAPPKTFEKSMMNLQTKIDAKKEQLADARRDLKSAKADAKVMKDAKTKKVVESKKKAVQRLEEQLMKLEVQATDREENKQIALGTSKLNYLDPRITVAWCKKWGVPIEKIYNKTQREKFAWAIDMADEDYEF

[4] = system: KB; assay: Cytotoxicity against human KB cells at 10 ug/ml; type: functional
[5] = system: L1210; assay: Cytotoxicity against mouse L1210 cells at 10 ug/ml; type: functional

Row | SMILES | IC50 [1] | IC50 [2] | MIC [3] | Activity [4] | Activity [5]
1 | C[C@@]12CCC(=O)c3coc(c31)C(=O)c1cc3c(cc12)C(=O)C=CC3=O [HELENAQUINONE] | 3.1 mg/L (≈ 9.33 µM) | 1.6 mg/L (≈ 4.81 µM) | 0.4 mg/L (≈ 1.2 µM) | – | –
2 | C[C@@]12CC[C@H](O)[C@@H]3COC(=C31)C(=O)c1cc3c(cc12)C(=O)CCC3O (some centres not stated) | – | – | 2.5 mg/L (≈ 7.34 µM) | 9.8% | 14.5%
3 | C[C@@]12CCCc3coc(c31)C(=O)c1cc3c(cc12)C(=O)C=CC3=O [XESTOQUINONE] | 1.7 mg/L (≈ 5.34 µM) | 0.17 mg/L (≈ 0.534 µM) | 2 mg/L (≈ 6.28 µM) | – | –
4 | C[C@@]12CCCc3coc(c31)C(=O)c1cc3c(O)ccc(OS(=O)(=O)[O-])c3cc12.[Na+] [XESTOQUINOL SULFATE SODIUM] | – | – | 10 mg/L | – | 25.4%
5 | C[C@@]12CCC(=O)c3coc(c31)C(=O)c1cc3c(O)ccc(OS(=O)(=O)[O-])c3cc12.[Na+] [HALENAQUINOL SULFATE SODIUM] | – | – | > 50 mg/L | 12.2% | 22.4%
6 | C[C@@]12CC[C@H](O)[C@@H]3COC(=C31)C(=O)c1cc3c(cc12)C(O)CCC3=O (some centres not stated) [XESTOSAPROL A] | – | – | 12.5 mg/L (≈ 36.7 µM) | 30.1% | 34.9%
